Values quoted from earlier work as cited in PMC7904743, “WIDOCK: a reactive docking protocol for virtual screening of covalent inhibitors” (Journal of Computer-Aided Molecular Design, 2021).
Read-outs that look alike come from different tables or passages of the source.

Assays:
OTUB2 = details: experimental actives if % labeling higher than 50%; cited from earlier work
NUDT7 = details: protein labeling at 200 μM; experimental actives if % labeling higher than 50%; cited from earlier work
[1] = thiol reactivity, cited from earlier work
[2] = natural log of average rate constant k
[3] = natural logarithm of average rate constant

SMILES: Cc1ccc(S(=O)(=O)N2CCN(C(=O)CCl)CC2)cc1C [PCM-0102379, Cc1ccc(S(=O)(=O)N2CCN(C(=O)CCl)CC2)cc1C]
- OTUB2 % labeling (OTUB2): 0%
- NUDT7 % labeling (NUDT7): 10%
- ln(avg k) [1, 2]: -15.076
- ln(avg k) [1, 3]: -15.076

SMILES: O=C(CCl)N1N=C(c2ccco2)CC1c1ccco1 (stereo not shown) [PCM-0102380, O=C(CCl)N1N=C(c2ccco2)CC1c1ccco1]
- OTUB2 % labeling (OTUB2): 0%
- NUDT7 % labeling (NUDT7): 54%
- ln(avg k) [1, 2]: -15.395
- ln(avg k) [1, 3]: -15.395

SMILES: N#CC(c1ccccc1)N1CCN(C(=O)CCl)CC1 (stereo not shown) [PCM-0102381, N#CC(c1ccccc1)N1CCN(C(=O)CCl)CC1]
- OTUB2 % labeling (OTUB2): 0%
- NUDT7 % labeling (NUDT7): 11%
- ln(avg k) [1, 2]: -15.106
- ln(avg k) [1, 3]: -15.106

SMILES: Cc1ccc(-c2cc(NC(=O)CCl)on2)cc1 [PCM-0102382, Cc1ccc(-c2cc(NC(=O)CCl)on2)cc1]
- OTUB2 % labeling (OTUB2): 45%
- NUDT7 % labeling (NUDT7): 81%
- ln(avg k) [1, 2]: -15.819
- ln(avg k) [1, 3]: -15.819

SMILES: O=C(CCl)NNC(=O)C1COc2ccccc2O1 (stereo not shown) [PCM-0102384, O=C(CCl)NNC(=O)C1COc2ccccc2O1]
- OTUB2 % labeling (OTUB2): 27%
- NUDT7 % labeling (NUDT7): 0%
- ln(avg k) [1, 2]: -17.088
- ln(avg k) [1, 3]: -17.088

SMILES: O=C(CCl)N1CCN(Cc2ccc3c(c2)OCCO3)CC1 [PCM-0102386, O=C(CCl)N1CCN(Cc2ccc3c(c2)OCCO3)CC1]
- OTUB2 % labeling (OTUB2): 0%
- NUDT7 % labeling (NUDT7): 0%
- ln(avg k) [1, 2]: -15.669
- ln(avg k) [1, 3]: -15.669

SMILES: O=C(CCl)N1CCN(Cc2ccccc2F)CC1 [PCM-0102387, O=C(CCl)N1CCN(Cc2ccccc2F)CC1]
- OTUB2 % labeling (OTUB2): 32%
- NUDT7 % labeling (NUDT7): 0%
- ln(avg k) [1, 2]: -15.308
- ln(avg k) [1, 3]: -15.308

SMILES: O=C(CCl)Nc1cc2[nH]c(=O)[nH]c2cc1Br [PCM-0102388, O=C(CCl)Nc1cc2[nH]c(=O)[nH]c2cc1Br]
- OTUB2 % labeling (OTUB2): 56%
- NUDT7 % labeling (NUDT7): 0%
- ln(avg k) [1, 2]: -15.369
- ln(avg k) [1, 3]: -15.369

SMILES: O=C(Nc1ccccc1O)C1CCN(C(=O)CCl)CC1 [PCM-0102389, O=C(Nc1ccccc1O)C1CCN(C(=O)CCl)CC1]
- OTUB2 % labeling (OTUB2): 14%
- NUDT7 % labeling (NUDT7): 10%
- ln(avg k) [1, 2]: -15.332
- ln(avg k) [1, 3]: -15.332

SMILES: Cc1ccccc1C(C)NC(=O)CCl (stereo not shown) [PCM-0102390, Cc1ccccc1C(C)NC(=O)CCl]
- OTUB2 % labeling (OTUB2): 26%
- NUDT7 % labeling (NUDT7): 10%
- ln(avg k) [1, 2]: -16.582
- ln(avg k) [1, 3]: -16.582

SMILES: O=C(CCl)NCC(=O)N1CCCC1 [PCM-0102391, O=C(CCl)NCC(=O)N1CCCC1]
- OTUB2 % labeling (OTUB2): 0%
- NUDT7 % labeling (NUDT7): 0%
- ln(avg k) [1, 2]: -17.246
- ln(avg k) [1, 3]: -17.246

SMILES: O=C(CCl)Nc1ccc([N+](=O)[O-])cc1Cl [PCM-0102392, O=C(CCl)Nc1ccc([N+](=O)[O-])cc1Cl]
- OTUB2 % labeling (OTUB2): 21%
- NUDT7 % labeling (NUDT7): 16%
- ln(avg k) [1, 2]: -15.878
- ln(avg k) [1, 3]: -15.878

SMILES: O=C(CCl)N1CCCC1c1cccs1 (stereo not shown) [PCM-0102393, O=C(CCl)N1CCCC1c1cccs1]
- OTUB2 % labeling (OTUB2): 0%
- NUDT7 % labeling (NUDT7): 36%
- ln(avg k) [1, 2]: -15.246
- ln(avg k) [1, 3]: -15.246

SMILES: Cc1cc(C)cc(NC(=O)CCl)c1 [PCM-0102394, Cc1cc(C)cc(NC(=O)CCl)c1]
- OTUB2 % labeling (OTUB2): 22%
- NUDT7 % labeling (NUDT7): 0%
- ln(avg k) [1, 2]: -15.891
- ln(avg k) [1, 3]: -15.891

SMILES: N#Cc1ccccc1S(=O)(=O)N1CCN(C(=O)CCl)CC1 [PCM-0102395, N#Cc1ccccc1S(=O)(=O)N1CCN(C(=O)CCl)CC1]
- OTUB2 % labeling (OTUB2): 0%
- NUDT7 % labeling (NUDT7): 28%
- ln(avg k) [1, 2]: -15.498
- ln(avg k) [1, 3]: -15.498

SMILES: O=C(CCl)Nc1cccc2ccccc12 [PCM-0102396, O=C(CCl)Nc1cccc2ccccc12]
- OTUB2 % labeling (OTUB2): 54%
- NUDT7 % labeling (NUDT7): 12%
- ln(avg k) [1, 2]: -16.060
- ln(avg k) [1, 3]: -16.060

SMILES: O=C(CCl)N1CCN(Cc2ccc3c(c2)OCO3)CC1 [PCM-0102397, O=C(CCl)N1CCN(Cc2ccc3c(c2)OCO3)CC1]
- OTUB2 % labeling (OTUB2): 0%
- NUDT7 % labeling (NUDT7): 0%
- ln(avg k) [1, 2]: -15.445
- ln(avg k) [1, 3]: -15.445

SMILES: Cc1ccc(C)c(NC(=O)CCl)c1 [PCM-0102398, Cc1ccc(C)c(NC(=O)CCl)c1]
- OTUB2 % labeling (OTUB2): 0%
- NUDT7 % labeling (NUDT7): 0%
- ln(avg k) [1, 2]: -16.327
- ln(avg k) [1, 3]: -16.327

SMILES: Cc1ccc(CN(C)C(=O)CCl)o1 [PCM-0102399, Cc1ccc(CN(C)C(=O)CCl)o1]
- OTUB2 % labeling (OTUB2): 0%
- NUDT7 % labeling (NUDT7): 5%
- ln(avg k) [1, 2]: -15.728
- ln(avg k) [1, 3]: -15.728

SMILES: O=C(CCl)Nc1ccc(C(=O)O)cc1 [PCM-0102400, O=C(CCl)Nc1ccc(C(=O)O)cc1]
- OTUB2 % labeling (OTUB2): 0%
- NUDT7 % labeling (NUDT7): 0%
- ln(avg k) [1, 2]: -16.430
- ln(avg k) [1, 3]: -16.430

SMILES: CN(Cc1ccc(Br)cc1)C(=O)CCl [PCM-0102401, CN(Cc1ccc(Br)cc1)C(=O)CCl]
- OTUB2 % labeling (OTUB2): 0%
- NUDT7 % labeling (NUDT7): 58%
- ln(avg k) [1, 2]: -15.733
- ln(avg k) [1, 3]: -15.733

SMILES: CC(NC(=O)CCl)C12CC3CC(CC(C3)C1)C2 (stereo not shown) [PCM-0102402, CC(NC(=O)CCl)C12CC3CC(CC(C3)C1)C2]
- OTUB2 % labeling (OTUB2): 24%
- NUDT7 % labeling (NUDT7): 7%
- ln(avg k) [1, 2]: -17.061
- ln(avg k) [1, 3]: -17.061

SMILES: O=C(CCl)NC1C2CC3CC(C2)CC1C3 (stereo not shown) [PCM-0102404, O=C(CCl)NC1C2CC3CC(C2)CC1C3]
- OTUB2 % labeling (OTUB2): 33%
- NUDT7 % labeling (NUDT7): 0%
- ln(avg k) [1, 2]: -16.228
- ln(avg k) [1, 3]: -16.228

SMILES: O=C(CCl)N1CCN(C2CCS(=O)(=O)C2)CC1 (stereo not shown) [PCM-0102405, O=C(CCl)N1CCN(C2CCS(=O)(=O)C2)CC1]
- OTUB2 % labeling (OTUB2): 0%
- NUDT7 % labeling (NUDT7): 0%
- ln(avg k) [1, 2]: -15.476
- ln(avg k) [1, 3]: -15.476

SMILES: O=C(CCl)Nc1ccc([N+](=O)[O-])cc1C(F)(F)F [PCM-0102406, O=C(CCl)Nc1ccc([N+](=O)[O-])cc1C(F)(F)F]
- OTUB2 % labeling (OTUB2): 0%
- NUDT7 % labeling (NUDT7): 0%
- ln(avg k) [1, 2]: -16.390
- ln(avg k) [1, 3]: -16.390

SMILES: CS(=O)(=O)c1cccc(NC(=O)CCl)c1 [PCM-0102407, CS(=O)(=O)c1cccc(NC(=O)CCl)c1]
- OTUB2 % labeling (OTUB2): 33%
- NUDT7 % labeling (NUDT7): 0%
- ln(avg k) [1, 2]: -15.426
- ln(avg k) [1, 3]: -15.426

SMILES: O=C(CCl)Nc1ccc2c(c1)OCCCO2 [PCM-0102409, O=C(CCl)Nc1ccc2c(c1)OCCCO2]
- OTUB2 % labeling (OTUB2): 23%
- NUDT7 % labeling (NUDT7): 10%
- ln(avg k) [1, 2]: -15.744
- ln(avg k) [1, 3]: -15.744

SMILES: COc1cccc(NC(=O)CCl)c1 [PCM-0102410, COc1cccc(NC(=O)CCl)c1]
- OTUB2 % labeling (OTUB2): 0%
- NUDT7 % labeling (NUDT7): 0%
- ln(avg k) [1, 2]: -15.888
- ln(avg k) [1, 3]: -15.888

SMILES: O=C(CCl)NC(=O)NC1CC1 [PCM-0102411, O=C(CCl)NC(=O)NC1CC1]
- OTUB2 % labeling (OTUB2): 0%
- NUDT7 % labeling (NUDT7): 0%
- ln(avg k) [1, 2]: -16.777
- ln(avg k) [1, 3]: -16.777

SMILES: O=C(CCl)Nc1cc(Cl)ccc1C(=O)O [PCM-0102412, O=C(CCl)Nc1cc(Cl)ccc1C(=O)O]
- OTUB2 % labeling (OTUB2): 7%
- NUDT7 % labeling (NUDT7): 16%
- ln(avg k) [1, 2]: -17.207
- ln(avg k) [1, 3]: -17.207

SMILES: O=C(CCl)N1CCSc2ccccc21 [PCM-0102415, O=C(CCl)N1CCSc2ccccc21]
- OTUB2 % labeling (OTUB2): 16%
- NUDT7 % labeling (NUDT7): 10%
- ln(avg k) [1, 2]: -15.511
- ln(avg k) [1, 3]: -15.511

SMILES: CS(=O)(=O)N1CCN(C(=O)CCl)CC1 [PCM-0102417, CS(=O)(=O)N1CCN(C(=O)CCl)CC1]
- OTUB2 % labeling (OTUB2): 0%
- NUDT7 % labeling (NUDT7): 0%
- ln(avg k) [1, 2]: -15.539
- ln(avg k) [1, 3]: -15.539

SMILES: CC1CCc2c(sc(NC(=O)CCl)c2C#N)C1 (stereo not shown) [PCM-0102420, CC1CCc2c(sc(NC(=O)CCl)c2C#N)C1]
- OTUB2 % labeling (OTUB2): 0%
- NUDT7 % labeling (NUDT7): 47%
- ln(avg k) [1, 2]: -16.452
- ln(avg k) [1, 3]: -16.452

SMILES: O=C(CCl)N1CCCC(c2nc3ccccc3s2)C1 (stereo not shown) [PCM-0102425, O=C(CCl)N1CCCC(c2nc3ccccc3s2)C1]
- OTUB2 % labeling (OTUB2): 0%
- NUDT7 % labeling (NUDT7): 28%
- ln(avg k) [1, 2]: -15.591
- ln(avg k) [1, 3]: -15.591
